We go through 3 compounds from US20080299140A1, “Immunogenic Composition and Peptide Sequences for Prevention and Treatment of an Hsv Condition” (priority 2002, published 2008).

For experiment [1], the target named is T1, DR1=HLA-DR(α1*0101,α1*0101) (Homo sapiens, UniProt P01903+P01911, A100R/D57E/F55L/F60I/F76Y/I96L/L162R/M171V/P40L/Q125E/R42F/V115G/Y59C).
T1 construct: endogenous in cells; host or cells: EBV homozygous human B cell line
In words: biochemical. The class given is binding. The conditions noted are these: […].

The target of experiment [2] is T2, DR3=HLA-DR(α1*0101,α1*0301) (Homo sapiens, UniProt P01903+P01911, A100K/A102G/A103R/A169T/F55Y/I96L/K41T/L162R/M171V/P40S/Q125H/Q178H/Q39Y/R42S/S66N/T106N/T262R/W38E/Y61H).
T2 construct: endogenous in cells; host or cells: STEILIN (EBV homozygous B cell line)
In words: HLA-DR specific binding assay, DR3.

In experiment [3] the target is T3, DR4=HLA-DR(α1*0101,α1*0401) (Homo sapiens, UniProt P01903+P01911, A100K/A169T/F76Y/I96L/K127E/L162R/M171V/N62H/P40V/Q125Y/R42H/S133A/S149N/S66Y/V115G/V209L/W38E).
T3 construct: endogenous in cells; host or cells: BOLETH (EBV homozygous B cell line)
In words: biochemical. Type of experiment: binding.

Experiment [4] has as its target T4, DR7=HLA-DR(α1*0101,α1*0701) (Homo sapiens, UniProt P01903+P01911, A100R/A102G/A103Q/D57E/D86V/E43K/F76Y/K127E/L162R/M171V/P40G/Q125H/Q99D/R33Q/R42Y/R54Q/S133A/S66F/T210M/V115G/Y107V/Y59L/Y89S).
T4 construct: endogenous in cells; host or cells: EBV homozygous human B cell line
In words: HLA-DR specific binding assay, DR7.

The target in experiment [5] is T5, DR11=HLA-DR(α1*0101,α1*1101) (Homo sapiens, UniProt P01903+P01911, A100R/A169T/A87E/I96F/K41T/L162R/M171V/P40S/Q125H/Q178H/Q39Y/Q99D/R42S/S66Y/T262R/V115G/W38E).
T5 construct: endogenous in cells; host or cells: SWEIG (EBV homozygous B cell line)
In words: biochemical. The class given is binding.

In experiment [6] the target is T6, DR13=HLA-DR(α1*0101,α1*1301) (Homo sapiens, UniProt P01903+P01911, A100E/A169T/K41T/L162R/M171V/P40S/Q125H/Q178H/Q39Y/Q99D/R42S/S66N/T262R/W38E/Y61H).
T6 construct: endogenous in cells; host or cells: 0206AD (EBV homozygous B cell line)
Put plainly: HLA-DR specific binding assay, DR13.

Experiment [7] has as its target T7, DR15=HLA-DR(α1*0101,α1*1501) (Homo sapiens, UniProt P01903+P01911).
T7 construct: endogenous in cells; host or cells: EBV homozygous human B cell line
In words: HLA-DR specific binding assay, DR15.

For experiment [8], the target named is T8, DRB3=HLA-DR(α1*0101,α3*0101) (Homo sapiens, UniProt P01903+P79483).
T8 construct: endogenous in cells; host or cells: STEILIN or 0206AD (both typed DRB3*0101)
T8 sequence (P79483 30-266, other chains not shown): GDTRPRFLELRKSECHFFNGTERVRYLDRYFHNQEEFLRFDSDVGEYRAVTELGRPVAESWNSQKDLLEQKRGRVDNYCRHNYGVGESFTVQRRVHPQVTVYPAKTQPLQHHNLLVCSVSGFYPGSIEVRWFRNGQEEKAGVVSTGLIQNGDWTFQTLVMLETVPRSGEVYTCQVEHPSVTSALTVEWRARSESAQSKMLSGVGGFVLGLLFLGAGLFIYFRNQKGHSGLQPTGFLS
Put plainly: HLA-DR specific binding assay, DRB3 (DR52).

Experiment [9] addresses T9, DRB4=HLA-DR(α1*0101,α4*0101) (Homo sapiens, UniProt P01903+P13762, G164S).
T9 construct: endogenous in cells
In words: HLA-DR specific binding assay, DRB4 (DR53).

Experiment [10] concerns the target T10, DRB5=HLA-DR(α1*0101,α5*0101) (Homo sapiens, UniProt P01903+Q30154).
T10 construct: endogenous in cells; host or cells: EBV homozygous human B cell line
Put plainly: biochemical. The class given is binding. The conditions noted are these: Table V; […]; read-out: IC50 DRB5.

In experiment [11] the target is T11, DP401=HLA-DP(α1*0101,α1*0401) (Homo sapiens, UniProt P04440+P20036).
T11 sequence (P20036 32-260 limits assumed): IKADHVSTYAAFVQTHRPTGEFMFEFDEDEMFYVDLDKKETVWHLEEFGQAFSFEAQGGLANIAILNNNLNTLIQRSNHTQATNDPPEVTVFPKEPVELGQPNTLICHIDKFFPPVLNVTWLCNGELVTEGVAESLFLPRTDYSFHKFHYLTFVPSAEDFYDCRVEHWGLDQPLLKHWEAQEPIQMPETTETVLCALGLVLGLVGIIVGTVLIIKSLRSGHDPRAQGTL
T11 sequence (P04440 30-258): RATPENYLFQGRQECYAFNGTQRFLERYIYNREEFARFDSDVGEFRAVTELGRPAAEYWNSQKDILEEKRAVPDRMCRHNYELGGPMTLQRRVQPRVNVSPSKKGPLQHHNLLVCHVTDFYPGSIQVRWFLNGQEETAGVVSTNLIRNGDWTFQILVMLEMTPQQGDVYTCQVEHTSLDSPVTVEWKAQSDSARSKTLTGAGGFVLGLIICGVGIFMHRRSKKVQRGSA
Put plainly: biochemical. The class given is binding.

The target of experiment [12] is T12, DP402 DP (α1*0101, α1*0402) (Homo sapiens, UniProt P04440+P20036, A65V/A84D/A85E/L207M).
T12 sequence (P20036 29-260): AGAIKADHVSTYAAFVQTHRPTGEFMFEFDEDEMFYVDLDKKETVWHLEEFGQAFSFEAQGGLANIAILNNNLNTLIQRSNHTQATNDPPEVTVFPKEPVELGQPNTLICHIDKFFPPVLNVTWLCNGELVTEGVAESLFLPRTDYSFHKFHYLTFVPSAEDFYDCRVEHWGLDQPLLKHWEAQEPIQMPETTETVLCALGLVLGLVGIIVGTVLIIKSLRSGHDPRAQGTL
T12 sequence (P04440 30-258 A65V/A84D/A85E): T11 sequence (P04440 30-258) with A36V, A55D, A56E
Put plainly: biochemical. Type of experiment: binding.

In experiment [13] the test system is HLA-DR and HLA-DP molecules. In words: MHC class II binding assays, panel of twelve HLA class II molecules (number of alleles bound). The following applies: number of the twelve class II MHC alleles bound; title: Threshold 600 nM/5 alleles.
Where [14] appears, read: Class II MHC allele DR1, read-out: IC50, DR1.
[15] abbreviates: IC50, DR3, Class II MHC allele DR3.
The mark [16] stands for this setting: Class II MHC allele DR4, read-out: IC50, DR4.
[17] abbreviates: Table V, […], read-out: IC50 DR4.
[18] abbreviates: Class II MHC allele DR11, read-out: IC50, DR11.
Where [19] appears, read: Table V, […], read-out: IC50 DR11.
Setting [20] is: IC50, DRD3, Class II MHC allele DRD3 (so in the source).

Where a chain is given by its changes, count along the chain named. Where two headings read alike, the source gives them in different places. Bounds are passed on as bounds.

T10 sequence (Q30154 30-266, other chains not shown): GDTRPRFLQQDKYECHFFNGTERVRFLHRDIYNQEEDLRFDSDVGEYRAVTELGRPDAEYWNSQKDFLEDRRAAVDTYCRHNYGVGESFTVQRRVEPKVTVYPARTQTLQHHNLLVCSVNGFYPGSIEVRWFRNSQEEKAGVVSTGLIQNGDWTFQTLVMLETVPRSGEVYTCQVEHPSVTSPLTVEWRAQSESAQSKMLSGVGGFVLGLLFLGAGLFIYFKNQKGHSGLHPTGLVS

The IC50 is the concentration at which inhibition is half-maximal. Turning to `CC[C@H](C)[C@H](NC(=O)[C@H](CCSC)NC(=O)[C@H](CCC(=O)O)NC(=O)[C@H](CCCNC(=N)N)NC(=O)[C@H](C)NC(=O)[C@H](CCC(=O)O)NC(=O)[C@H](C)NC(=O)[C@H](CC(C)C)NC(=O)[C@@H](N)CCCCN)C(=O)N[C@@H](CCCNC(=N)N)C(=O)N[C@@H](Cc1ccc(O)cc1)C(=O)N[C@@H](CCSC)C(=O)N[C@@H](C)C(=O)N[C@@H](CC(C)C)C(=O)N[C@H](C(=O)N[C@@H](CO)C(=O)N[C@@H](C)C(=O)N[C@@H](CCSC)C(=O)N[C@@H](CCC(=O)O)C(=O)N[C@@H](CCCNC(=N)N)C(=O)N[C@H](C(=O)N[C@@H](CCC(=O)O)C(=O)N[C@@H](Cc1c[nH]cn1)C(=O)N[C@@H](CCCCN)C(=O)N[C@@H](C)C(=O)N[C@@H](CCCCN)C(=O)N[C@@H](CCCCN)C(=O)N[C@@H](CCCCN)C(=O)NCC(=O)N[C@H](C(=O)N[C@@H](CO)C(=O)N[C@@H](C)C(=O)O)[C@@H](C)O)[C@@H](C)O)C(C)C` [HSV 1], the 50% inhibitory concentration (IC50) was 6 nM in [1] (Table V, read-out: IC50 DR1); 6 nM in experiment [1] (setting [14]); 995 nM in [2] (setting [15]); 995 nM in experiment [2] (IC50 DR3, Table V, […]); 37 nM in experiment [3] (setting [16]); 37 nM in experiment [3] (setting [17]). The IC50 in [4] was 296 nM; in [5] (setting [18]) it was 13 nM; in experiment [5] (setting [19]) it was 13 nM; in experiment [6] it was 284 nM; in [7], 3 nM; in [8] (setting [20]), above 100000 nM. Further, the IC50 in experiment [8] (IC50 DRB3, Table V, […]) was above 100000 nM; in experiment [9], 43 nM; in experiment [10] it was 6 nM; in experiment [11] (Class II MHC allele DP401), 1610 nM; in experiment [11] (Table V, […]) it was 1610 nM; in experiment [12] (Class II MHC allele DP402) it was 240 nM. This compound yielded a concentration for half-maximal inhibition (IC50) in experiment [12] (Table V, […]) of 240 nM. Besides, the Range in experiment [13] was 10.

On to `CSCC[C@H](NC(=O)[C@@H](NC(=O)[C@H](Cc1ccc(O)cc1)NC(=O)[C@H](CCCNC(=N)N)NC(=O)[C@@H](N)Cc1ccccc1)C(C)C)C(=O)N[C@@H](CCCNC(=N)N)C(=O)N[C@@H](CC(C)C)C(=O)N[C@@H](CCC(N)=O)C(=O)N[C@@H](CO)C(=O)N[C@@H](CC(N)=O)C(=O)N1CCC[C@H]1C(=O)N[C@@H](CCSC)C(=O)N[C@@H](CCCCN)C(=O)N[C@@H](C)C(=O)N[C@@H](CC(C)C)C(=O)N[C@@H](Cc1ccc(O)cc1)C(=O)N1CCC[C@H]1C(=O)N[C@@H](CC(C)C)C(=O)N[C@H](C(=O)N[C@H](C(=O)N[C@@H](CCCCN)C(=O)N[C@@H](CCC(=O)O)C(=O)N[C@@H](CC(C)C)C(=O)N[C@@H](CCCCN)C(=O)N[C@@H](CC(N)=O)C(=O)N1CCC[C@H]1C(=O)N[C@H](C(=O)N[C@@H](CC(N)=O)C(=O)N1CCC[C@H]1C(=O)N[C@@H](CC(=O)O)C(=O)N[C@@H](C)C(=O)N[C@@H](CO)C(=O)NCC(=O)N[C@@H](CCC(=O)O)C(=O)NCC(=O)O)[C@@H](C)O)[C@@H](C)O)[C@@H](C)O` [HSV 8], for which the IC50 is 2 nM in [1] (Table V, read-out: IC50 DR1); 2 nM in experiment [1] (setting [14]); 4780 nM in experiment [2] (setting [15]); 4780 nM in experiment [2] (IC50 DR3, Table V, […]); 12 nM in experiment [3] (setting [16]); 12 nM in experiment [3] (setting [17]). In addition, the IC50 in experiment [4] was 20 nM; in [5] (setting [18]), 4 nM; in experiment [5] (setting [19]), 4 nM; in experiment [6] it was 314 nM; in experiment [7] it was 3 nM; in experiment [8] (setting [20]) it was 55000 nM. In addition, the IC50 turned out to be 55000 nM in [8] (IC50 DRB3, Table V, […]); 232 nM in experiment [9]; 2 nM in experiment [10]; 107 nM in experiment [11] (Class II MHC allele DP401); 107 nM in [11] (Table V, […]); 32 nM in [12] (Class II MHC allele DP402). For the same compound, in [12] (Table V, […]), half-maximal inhibition (IC50) required 32 nM. Further, the Range in experiment [13] was determined as 10.

Regarding `CSCC[C@H](NC(=O)[C@H](CCCCN)NC(=O)[C@H](CC(C)C)NC(=O)[C@H](CO)NC(=O)[C@H](C)NC(=O)[C@H](CC(=O)O)NC(=O)[C@@H](NC(=O)[C@H](CC(C)C)NC(=O)[C@H](C)NC(=O)[C@H](Cc1ccc(O)cc1)NC(=O)[C@@H](N)CCCCN)C(C)C)C(=O)N[C@@H](C)C(=O)N[C@@H](CC(=O)O)C(=O)N1CCC[C@H]1C(=O)N[C@@H](CC(N)=O)C(=O)N[C@@H](CCCNC(=N)N)C(=O)N[C@@H](Cc1ccccc1)C(=O)N[C@@H](CCCNC(=N)N)C(=O)NCC(=O)N[C@@H](CCCCN)C(=O)N[C@@H](CC(=O)O)C(=O)N[C@@H](CC(C)C)C(=O)N1CCC[C@H]1C(=O)O` [HSV 29], the 50% inhibitory concentration (IC50) turned out to be 1230 nM in [1] (Table V, read-out: IC50 DR1); 1230 nM in experiment [1] (setting [14]); 120 nM in experiment [2] (setting [15]); 120 nM in experiment [2] (IC50 DR3, Table V, […]); 82 nM in experiment [3] (setting [16]); 82 nM in [3] (setting [17]). In addition, the half-inhibitory concentration (IC50) is 894 nM in [4]; 5250 nM in [5] (setting [18]); 5250 nM in experiment [5] (setting [19]); above 100000 nM in [6]; above 100000 nM in experiment [6] (read-out: IC50, DR13, Class II MHC allele DR13); 24500 nM in [7]. Besides, the IC50 in experiment [8] (setting [20]) came to 1400 nM; in experiment [8] (IC50 DRB3, Table V, […]), 1400 nM; in experiment [9] it was 52500 nM; in experiment [10], 8 nM; in experiment [11] (Class II MHC allele DP401), 17500 nM; in experiment [11] (Table V, […]), 17500 nM. Moreover, the IC50 came to 1630 nM in experiment [12] (Class II MHC allele DP402) and 1630 nM in experiment [12] (Table V, […]). Besides, the Range in experiment [13] is listed as 3.
